Assay results: patent US20250011289A1, “1H-BENZO[B]AZEPIN-2(3H)-ONE COMPOUNDS, COMPOSITIONS AND METHODS OF TREATING CANCER” (Chengdu Anticancer Bioscience, Ltd., priority 2021, published 2025)
Read-outs that look alike come from different tables or passages of the source.

Experiments:
[1] = system: RPE-Neo or RPE-MYC or RPE-MYC expressing an EGFP-Histone 2B fusion protein; assay: Phenotypic screening assay (arrest in mitosis or change in DNA content, IN-Cell Analyzer); assay type: cell-based; settings: compounds at 20 nM to 20 μM, analysed 24, 48 or 72 hours after initiation of treatment
Experimental: (§1) Screening was conducted as described before (Li et al. 2019). Briefly, RPE-Neo or RPE-MYC or RPE-MYC expressing an EGFP-Histone 2B fusion protein were passaged as batches of 96-well plates, 18-24 hours before exposure to the chemical compounds of the present disclosure at concentrations from 20 nM to 20 μM. At 24, 48 or 72 hours after initiation of treatment, cells were analyzed for either an arrest in mitosis or a change in DNA content by GE 1N-Cell Analyzer 2000. MTT assays of cellular proliferation were performed as previously described (Li et al. 2019).
(§2) As set forth in table 2 below, an values of greater than or equal to 1 nM and less than or equal to 1.0 μM is marked “A”; a value greater than 1.00 μM and less than or equal to 10.0 μM is marked “B”; a value greater than 10.0 μM and less than or equal to 30.0 μM is marked “C”; and a value greater than 30.0 μM and less than 1000 μM is marked “D.”

RPE-Neo or RPE-MYC cells = assay: MTT assay of cellular proliferation; assay type: cell-based; settings: compounds at 20 nM to 20 μM; read-out: Min. Effective conc. for Proliferative arrest (>50%)
Experimental: Human cancer cell lines were obtained from ATCC and cultured in DMEM (Gibco, Cleveland. TN, USA) supplemented with 5% fetal bovine serum (Gibco), penicillin (100 U/mL)-streptomycin (100 μg/mL) (Gibco, Cat. No. 15140-122), 2 mM L-glutamine (Gibco, 200 mM solution, Cat. No. 25030081), and 1 mM sodium pyruvate (Gibco, 100 mM solution, Cat. No. 11360070) at 37° C. in a humidified incubator that was maintained at 5% CO2.
as §1, §2

[2] = read-out: Min. Effective conc. for Along with Cell Death
[3] = read-out: Min. Effective conc. for Mitotic Arrest (>5%)
[4] = read-out: Min. Effective conc. for Polyploidy (≥5%)

Cc1cc(F)c(CN2C(=O)CC(c3nnc(C4CC4)o3)=C(Br)c3ccccc32)cc1F [Compound 20-28, 5-bromo-4-(5-cyclopropyl-1,3,4-oxadiazol-2-yl)-1-(2,5-difluoro-4-methylbenzyl)-1,3-dihydro-2H-benzo[b]azepin-2-one]
minimal effective concentration [1, 2]: 0.001 to 1 µM | minimal effective concentration [1, 3]: 0.001 to 1 µM | minimal effective concentration [1, 4]: 0.001 to 1 µM | minimal effective concentration (RPE-Neo or RPE-MYC cells): 0.001 to 1 µM

Cc1ccc(CN2C(=O)CC(c3nnc(C4CC4)o3)=C(C3CC3)c3ccccc32)cc1F [Compound 20-29]
minimal effective concentration [1, 2]: 1 to 10 µM | minimal effective concentration [1, 3]: 1 to 10 µM | minimal effective concentration [1, 4]: 1 to 10 µM | minimal effective concentration (RPE-Neo or RPE-MYC cells): 1 to 10 µM

CC1=C(c2nnc(C3CC3)o2)CC(=O)N(Cc2ccc(C)c(F)c2)c2ccccc21 [Compound 20-30]
minimal effective concentration [1, 2]: 0.001 to 1 µM | minimal effective concentration [1, 3]: 0.001 to 1 µM | minimal effective concentration [1, 4]: 0.001 to 1 µM | minimal effective concentration (RPE-Neo or RPE-MYC cells): 0.001 to 1 µM

C#CC1=C(c2nnc(C3CC3)o2)CC(=O)N(Cc2ccc(C)c(F)c2)c2ccccc21 [Compound 20-32, 4-(5-cyclopropyl-1,3,4-oxadiazol-2-yl)-5-ethynyl-1-(3-fluoro-4-methylbenzyl)-1,3-dihydro-2H-benzo[b]azepin-2-one]
minimal effective concentration [1, 2]: 0.001 to 1 µM | minimal effective concentration [1, 3]: 0.001 to 1 µM | minimal effective concentration [1, 4]: 0.001 to 1 µM | minimal effective concentration (RPE-Neo or RPE-MYC cells): 0.001 to 1 µM

Cc1ccc(CN2C(=O)CC(c3nc[nH]n3)=C(Br)c3ccccc32)cc1F [Compound 22-1, 5-bromo-1-(3-fluoro-4-methylbenzyl)-4-(1H-1,2,4-triazol-3-yl)-1,3-dihydro-2H-benzo[b]azepin-2-one]
minimal effective concentration [1, 2]: 1 to 10 µM | minimal effective concentration [1, 3]: 1 to 10 µM | minimal effective concentration [1, 4]: 1 to 10 µM | minimal effective concentration (RPE-Neo or RPE-MYC cells): 1 to 10 µM

Cc1cnc(C2=C(Br)c3ccccc3N(Cc3ccc(C)c(F)c3)C(=O)C2)o1 [Compound 23-1, 5-bromo-1-(3-fluoro-4-methylbenzyl)-4-(5-methyloxazol-2-yl)-1,3-dihydro-2H-benzo[b]azepin-2-one]
minimal effective concentration [1, 2]: 0.001 to 1 µM | minimal effective concentration [1, 3]: 0.001 to 1 µM | minimal effective concentration [1, 4]: 0.001 to 1 µM | minimal effective concentration (RPE-Neo or RPE-MYC cells): 0.001 to 1 µM

Cc1ccc(CN2C(=S)CC(c3nnc(C4CC4)o3)=C(Br)c3ccccc32)cc1F [Compound 24-1, 5-bromo-4-(5-cyclopropyl-1,3,4-oxadiazol-2-yl)-1-(3-fluoro-4-methylbenzyl)-1,3-dihydro-2H-benzo[b]azepine-2-thione]
minimal effective concentration [1, 2]: 0.001 to 1 µM | minimal effective concentration [1, 3]: 0.001 to 1 µM | minimal effective concentration [1, 4]: 0.001 to 1 µM | minimal effective concentration (RPE-Neo or RPE-MYC cells): 0.001 to 1 µM

CCOCC1=C(Cl)c2ccccc2N(Cc2ccc(C)c(F)c2)C(=O)C1 [Compound 24-2, 5-chloro-4-(ethoxymethyl)-1-(3-fluoro-4-methylbenzyl)-1,3-dihydro-2H-benzo[b]azepin-2-one]
minimal effective concentration [1, 2]: 0.001 to 1 µM | minimal effective concentration [1, 3]: 0.001 to 1 µM | minimal effective concentration [1, 4]: 0.001 to 1 µM | minimal effective concentration (RPE-Neo or RPE-MYC cells): 0.001 to 1 µM

COC1=C(c2cnco2)CC(=O)N(Cc2ccc(C)c(F)c2)c2ccccc21 [Compound 26-1, 1-(3-fluoro-4-methylbenzyl)-5-methoxy-4-(oxazol-5-yl)-1,3-dihydro-2H-benzo[b]azepin-2-one]
minimal effective concentration [1, 2]: 1 to 10 µM | minimal effective concentration [1, 3]: 1 to 10 µM | minimal effective concentration [1, 4]: 1 to 10 µM | minimal effective concentration (RPE-Neo or RPE-MYC cells): 1 to 10 µM

COC1=C(CO)CC(=O)N(Cc2ccc(C)c(F)c2)c2ccccc21 [Compound 27-1, 1-(3-fluoro-4-methylbenzyl)-4-(hydroxymethyl)-5-methoxy-1,3-dihydro-2H-benzo[b]azepin-2-one]
minimal effective concentration [1, 2]: 30 to 1000 µM | minimal effective concentration [1, 3]: 30 to 1000 µM | minimal effective concentration [1, 4]: 30 to 1000 µM | minimal effective concentration (RPE-Neo or RPE-MYC cells): 30 to 1000 µM

COCC1=C(OC)c2ccccc2N(Cc2ccc(C)c(F)c2)C(=O)C1 [Compound 28-1, 1-(3-fluoro-4-methylbenzyl)-5-methoxy-4-(methoxymethyl)-1,3-dihydro-2H-benzo[b]azepin-2-one]
minimal effective concentration [1, 2]: 1 to 10 µM | minimal effective concentration [1, 3]: 1 to 10 µM | minimal effective concentration [1, 4]: 1 to 10 µM | minimal effective concentration (RPE-Neo or RPE-MYC cells): 1 to 10 µM

COc1ccc(C(=O)N2CCC(c3nnc(C4CC4)o3)=C(Br)c3ccccc32)cc1F [Compound 34-2, (5-bromo-4-(5-cyclopropyl-1,3,4-oxadiazol-2-yl)-2,3-dihydro-1H-benzo[b]azepin-1-yl)(3-fluoro-4-methoxyphenyl)methanone]
minimal effective concentration [1, 2]: 0.001 to 1 µM | minimal effective concentration [1, 3]: 0.001 to 1 µM | minimal effective concentration [1, 4]: 0.001 to 1 µM | minimal effective concentration (RPE-Neo or RPE-MYC cells): 0.001 to 1 µM

COc1ccc(S(=O)(=O)N2CCC(c3nnc(C4CC4)o3)=C(Br)c3ccccc32)cc1F [Compound 34-3, 2-(5-bromo-1-((3-fluoro-4-methoxyphenyl)sulfonyl)-2,3-dihydro-1H-benzo[b]azepin-4-yl)-5-cyclopropyl-1,3,4-oxadiazole]
minimal effective concentration [1, 2]: 1 to 10 µM | minimal effective concentration [1, 3]: 1 to 10 µM | minimal effective concentration [1, 4]: 1 to 10 µM | minimal effective concentration (RPE-Neo or RPE-MYC cells): 1 to 10 µM

Cc1ccc(S(=O)(=O)N2CCC(c3nnc(C4CC4)o3)=C(Br)c3ccccc32)cc1 [Compound 34-4, 2-(5-bromo-1-tosyl-2,3-dihydro-1H-benzo[b]azepin-4-yl)-5-cyclopropyl-1,3,4-oxadiazole]
minimal effective concentration [1, 2]: 1 to 10 µM | minimal effective concentration [1, 3]: 1 to 10 µM | minimal effective concentration [1, 4]: 1 to 10 µM | minimal effective concentration (RPE-Neo or RPE-MYC cells): 1 to 10 µM

Cc1ccc(C(C)N2C(=O)CC(c3nnc(C4CC4)o3)=C(Br)c3ccccc32)cc1F (centres unmarked) [Compound 40]
minimal effective concentration [1, 2]: 1 to 10 µM | minimal effective concentration [1, 3]: 1 to 10 µM | minimal effective concentration [1, 4]: 1 to 10 µM | minimal effective concentration (RPE-Neo or RPE-MYC cells): 1 to 10 µM

COCC1=C(Br)c2ccccc2N(Cc2ccc(C)c(F)c2)C(=O)C1 [Compound 42, 5-bromo-1-(3-fluoro-4-methylbenzyl)-4-(methoxymethyl)-1,3-dihydro-2H-benzo[b]azepin-2-one]
minimal effective concentration [1, 2]: 0.001 to 1 µM | minimal effective concentration [1, 3]: 0.001 to 1 µM | minimal effective concentration [1, 4]: 0.001 to 1 µM | minimal effective concentration (RPE-Neo or RPE-MYC cells): 0.001 to 1 µM

Cc1ccc(CN2C(=O)CC(COC3CCOC3)=C(Br)c3ccccc32)cc1F (centres unmarked) [Compound 44-1, 5-bromo-1-(3-fluoro-4-methylbenzyl)-4-(((tetrahydrofuran-3-yl)oxy)methyl)-1,3-dihydro-2H-benzo[b]azepin-2-one]
minimal effective concentration [1, 2]: 0.001 to 1 µM | minimal effective concentration [1, 3]: 0.001 to 1 µM | minimal effective concentration [1, 4]: 0.001 to 1 µM | minimal effective concentration (RPE-Neo or RPE-MYC cells): 0.001 to 1 µM

Cc1ccc(CN2C(=O)CC(COC3CCOCC3)=C(Br)c3ccccc32)cc1F [Compound 44-2, 5-bromo-1-(3-fluoro-4-methylbenzyl)-4-(((tetrahydro-2H-pyran-4-yl)oxy)methyl)-1,3-dihydro-2H-benzo[b]azepin-2-one]
minimal effective concentration [1, 2]: 1 to 10 µM | minimal effective concentration [1, 3]: 1 to 10 µM | minimal effective concentration [1, 4]: 1 to 10 µM | minimal effective concentration (RPE-Neo or RPE-MYC cells): 1 to 10 µM

Cc1ccc(CN2C(=O)CC(COCC3CCOC3)=C(Br)c3ccccc32)cc1F (centres unmarked) [Compound 44-3]
minimal effective concentration [1, 2]: 0.001 to 1 µM | minimal effective concentration [1, 3]: 1 to 10 µM | minimal effective concentration [1, 4]: 0.001 to 1 µM | minimal effective concentration (RPE-Neo or RPE-MYC cells): 0.001 to 1 µM

Cc1ccc(CN2C(=O)CC(COCC3CCCO3)=C(Br)c3ccccc32)cc1F (centres unmarked) [Compound 44-4, 5-bromo-1-(3-fluoro-4-methylbenzyl)-4-(((tetrahydrofuran-2-yl)methoxy)methyl)-1,3-dihydro-2H-benzo[b]azepin-2-one]
minimal effective concentration [1, 2]: 1 to 10 µM | minimal effective concentration [1, 3]: 1 to 10 µM | minimal effective concentration [1, 4]: 1 to 10 µM | minimal effective concentration (RPE-Neo or RPE-MYC cells): 1 to 10 µM

Cc1ccc(CN2C(=O)CC(CO[C@@H]3CCOC3)=C(Br)c3ccccc32)cc1F [Compound 44-5, (R)-5-bromo-1-(3-fluoro-4-methylbenzyl)-4-(((tetrahydrofuran-3-yl)oxy)methyl)-1,3-dihydro-2H-benzo[b]azepin-2-one]
minimal effective concentration [1, 2]: 0.001 to 1 µM | minimal effective concentration [1, 3]: 0.001 to 1 µM | minimal effective concentration [1, 4]: 0.001 to 1 µM | minimal effective concentration (RPE-Neo or RPE-MYC cells): 0.001 to 1 µM

Cc1ccc(CN2C(=O)CC(CO[C@H]3CCOC3)=C(Br)c3ccccc32)cc1F [Compound 44-6, (S)-5-bromo-1-(3-fluoro-4-methylbenzyl)-4-(((tetrahydrofuran-3-yl)oxy)methyl)-1,3-dihydro-2H-benzo[b]azepin-2-one]
minimal effective concentration [1, 2]: 0.001 to 1 µM | minimal effective concentration [1, 3]: 0.001 to 1 µM | minimal effective concentration [1, 4]: 0.001 to 1 µM | minimal effective concentration (RPE-Neo or RPE-MYC cells): 0.001 to 1 µM

Cc1ccc(CN2C(=O)CC(CN3CCCC3)=C(Br)c3ccccc32)cc1F [Compound 45, 5-bromo-1-(3-fluoro-4-methylbenzyl)-4-(pyrrolidin-1-ylmethyl)-1,3-dihydro-2H-benzo[b]azepin-2-one]
minimal effective concentration [1, 2]: 1 to 10 µM | minimal effective concentration [1, 3]: 1 to 10 µM | minimal effective concentration [1, 4]: 1 to 10 µM | minimal effective concentration (RPE-Neo or RPE-MYC cells): 1 to 10 µM
